Assay results from PubChem BioAssay (NCI).
Several values for one entry are separate records, joined by “and”; a condition that tells them apart may be missing. Equal values may be shown once.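 96-well plates; 48 h exposure; 5 concentrations. Endpoints by linear interpolation between flanking doses. Not reached: highest tested concentration assigned. GI50 is the concentration that inhibits growth by half. At the TGI there is no net growth.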

Tests used:
Test in all cases: NCI tumour cell line growth inhibition, 48 h
HCC-2998 colon = test system: HCC-2998 colon
SK-MEL-5 melanoma = test system: SK-MEL-5 melanoma
UACC-62 melanoma = test system: UACC-62 melanoma
MDA-MB-435 = test system: MDA-MB-435
RXF 393 renal = test system: RXF 393 renal
OVCAR-3 ovarian = test system: OVCAR-3 ovarian
M14 melanoma = test system: M14 melanoma
UACC-257 melanoma = test system: UACC-257 melanoma
NCI-H460 lung = test system: NCI-H460 lung
HCT-15 colon = test system: HCT-15 colon

Structure (SMILES)	GI50 (HCC-2998 colon) [µM]	TGI (HCC-2998 colon)	GI50 (SK-MEL-5 melanoma) [µM]	TGI (SK-MEL-5 melanoma)	GI50 (UACC-62 melanoma) [µM]	TGI (UACC-62 melanoma)	GI50 (MDA-MB-435) [µM]	TGI (MDA-MB-435)	GI50 (RXF 393 renal) [µM]	TGI (RXF 393 renal)	GI50 (OVCAR-3 ovarian) [µM]	TGI (OVCAR-3 ovarian)	GI50 (M14 melanoma) [µM]	TGI (M14 melanoma)	GI50 (UACC-257 melanoma) [µM]	TGI (UACC-257 melanoma)	GI50 (NCI-H460 lung) [µM]	GI50 (HCT-15 colon) [µM]	TGI (HCT-15 colon) [µM]	TGI (NCI-H460 lung)
Nc1c(C(=O)Nc2ccccc2)sc2nc3c(cc12)C(=O)CCC3	1.2	> 100 µM	0.249	5.7 µM	0.557	> 100 µM	0.139	> 100 µM	0.19	0.619 µM	0.264	1.22 µM	0.401	> 32.9 µM	0.57	> 100 µM	0.346	0.407	> 100	
O=C(CI)NC(=O)NC(=O)NCc1ccccc1	10.4	22.9 µM	4.73	15.9 µM	3.82	14.6 µM	3.15	11.7 µM	2.98	9.31 µM	1.82	3.37 µM	2.89	10.8 µM	11.5	23.9 µM	5.3	2.03	4.94	23.4 µM
N=C(N)n1cc(/C=N/N=C(N)N)cn1		> 100 µM		> 100 µM		> 100 µM		> 100 µM		> 100 µM		> 100 µM		> 100 µM		> 100 µM			> 100	> 100 µM
O=C(O)c1ccccc1NCn1nc(-c2ccccc2O)oc1=S	33.7	86.7 µM	73.4	> 100 µM	33.7	92.3 µM	> 100	> 100 µM	68.9	> 100 µM	> 100	> 100 µM	46.3	> 100 µM	> 100	> 100 µM	39.5	24.6	65.3	> 100 µM
OCCNc1nc2ccccc2c2[nH]c3ccccc3c12	0.527	1.71 µM	0.979	2.54 µM	1.36	6.52 µM	0.528	1.81 µM	0.146	0.646 µM	0.516	3.47 µM	0.699	2.03 µM	0.944	2.33 µM	0.305	0.349	3.59	1.24 µM
CC(=O)Nc1cccc(C#Cc2cncnc2Nc2ccc(OCc3cccc(F)c3)c(Cl)c2)c1	7.94	> 25 µM	8.12	> 25 µM	8.88	> 25 µM	8.14	> 25 µM	0.753	> 15.1 µM	7.53	> 25 µM	10.8	> 25 µM	13.7	> 25 µM	8.94	7.41	> 25	> 25 µM
CN(C)CCNC(=O)Nc1ccc(N(C)c2ccnc(Nc3ccc(CS(C)(=O)=O)cc3)n2)cc1	> 25	> 25 µM	> 25	> 25 µM	> 25	> 25 µM	> 25	> 25 µM	> 25	> 25 µM	> 25	> 25 µM	> 25	> 25 µM	> 25	> 25 µM	> 25	> 25	> 25	> 25 µM
C#COc1cccc(Nc2ncnc3cc(NC(=O)[C@@H](C)Cl)ccc23)c1	13.9	> 62.5 µM	4.09	32.8 µM	5.48	> 62.5 µM	1.65	4.66 µM	8.12	40.8 µM	2.68	> 62.5 µM	3.92	> 62.5 µM	> 62.5	> 62.5 µM	7.63	3.98	> 62.5	> 62.5 µM
Cn1cc(-c2ccc3ncc(-c4ccc(CC(=O)Nc5cc(C(C)(C)C)nn5C)cc4)cc3c2)cn1	2.73	> 20 µM	0.756	3 µM	1.26	6.65 µM	1.25	> 20 µM	1.14	> 20 µM	1.4	> 20 µM	0.984	> 20 µM	1.45	> 20 µM	0.786	0.793	> 20	> 20 µM
S=C(Sc1ccc(Cl)cc1)Sc1ccc(Cl)cc1	3.08	10.3 µM	1.68	3.11 µM	3.15	10.6 µM	1.92	4.9 µM	2.04	3.87 µM	1.74	3.12 µM	2.03	3.95 µM	5.04	16.6 µM	3.12	1.77	4.71	13.4 µM
CCCC(O)[C@@]1(CC)CC(C)C(O)(C2(C)C[C@H](C)[C@@H](C(CC)C(=O)C(C)[C@@H](O)[C@H](C)C3OC(O)(C(CC)C(=O)O)[C@@H](C)C(O)C3CC)O2)O1 (stereo partly specified)		1.49 µM		1.18 µM		2.86 µM		1.2 µM		1.61 µM		2.62 µM		2.15 µM		1.94 µM			7.03	2.14 µM
CCc1ccc(Oc2c(-c3ccc(OCc4ccc(Cl)cc4)cc3O)nn(C)c2C(F)(F)F)cc1	2.44	9.62 µM	1.22	2.47 µM	0.516	2.25 µM	1.06	2.25 µM	1.14	2.59 µM	0.334	1.13 µM	1.17	2.68 µM	1.18	3.53 µM	0.356	0.365	1.45	1.31 µM
Nc1ncnc2c1c(-c1ccc(Oc3ccccc3)cc1)nn2CC1SSCC1O (stereo unspecified)	6.75	20.5 µM	1.29	5.07 µM	0.63	1.33 µM	0.121	0.47 µM	2.74	9.62 µM	0.659	1.62 µM	0.0609	0.121 µM	2.07	10.6 µM	0.111	3.03	9.88	7.97 µM
CC[n+]1c(-c2ccccc2)c2cc(N)ccc2c2ccc(N)cc21	1.22	3.31 µM and 16.5 µM and 19.8 µM	0.864	2.14 µM and 2.6 µM	0.578	2.4 µM and 3.61 µM	1.11	2.56 µM and 12.5 µM	1.07	3.51 µM and 17.1 µM	1.61	9.84 µM and 20.4 µM and 15 µM	3.84	16.6 µM and 44.5 µM	1.22	4.8 µM and 10 µM and 6.4 µM	1.21	39.6	> 100	12.3 µM and 22.5 µM and 22.1 µM
OCC1OC(OC2(CO)OC(CO)C(O)C2O)C(O)C(O)C1O (stereo unspecified)	> 100	> 100 µM	> 100	> 100 µM	> 100	> 100 µM	> 100	> 100 µM	> 100	> 100 µM	> 100	> 100 µM	> 100	> 100 µM	> 100	> 100 µM	> 100	> 100	> 100	> 100 µM
CCN1C(=O)N(CC)C2C1NC(=S)N2/N=C/C=C/c1ccccc1 (stereo unspecified)	0.328	> 58.6 µM	0.145	11.3 µM	0.0439	> 100 µM	0.0253	0.0664 µM	0.0899	> 100 µM	0.0425	> 100 µM	0.0881	> 100 µM	> 100	> 100 µM	0.176	0.0849	> 100	> 100 µM
O=c1[nH]c(=S)[nH]c(O)c1/C=C1\C=Nc2ccccc21	11.4	24.8 µM	11.7	27.2 µM	8.26	46.9 µM	2.01	4.94 µM	3.71	14.6 µM	1.44	3.13 µM	10.6	35.1 µM	14.2	53.6 µM	4.07	2.78	8.07	18.5 µM
Cc1ccc2ccc3c4ccccc4ccc3c2c1	20.8	43.2 µM	27.6	92.9 µM	21.8	> 100 µM	18.1	71 µM	20.1	46.8 µM	25.5	67.6 µM	28.6	> 100 µM	27.1	83.4 µM	26.3	23.3	83.5	76 µM
CN(C)CCCOc1ccc(NC2=C(Cl)C(=O)C(Nc3ccc(OCCCN(C)C)cc3)=C(Cl)C2=O)cc1	0.769	2.09 µM	1.31	2.59 µM	1.61	3.09 µM	0.501	1.05 µM	1.19	2.45 µM	0.187	0.353 µM	1.45	2.9 µM	0.793	2.29 µM	0.872	0.411	0.958	2.55 µM
OCc1ccc(-c2ccc(-c3ccc(CO)o3)o2)o1	> 82	> 100 µM	> 100	> 100 µM	16.7	> 100 µM	> 100	> 100 µM	26.5	> 90 µM	> 84.6	> 100 µM	> 100	> 100 µM	2.85	11.9 µM	> 100	> 100	> 100	> 100 µM
C[C@]12CCc3nc(Nc4ccc(O)cc4)sc3C1=CC[C@@H]1[C@@H]2CC[C@]2(C)/C(=N/NC(N)=S)CC[C@@H]12	1.89	4.3 µM	1.66	3.14 µM	1.43	2.89 µM	0.664	2.05 µM	1.23	2.69 µM	1.56	3.12 µM	1.18	2.9 µM	2.04	5.61 µM	0.525	1.24	3.03	1.94 µM
C/C(=N\NC(=S)N1CCC1)c1ccccn1	0.0113	26.8 µM	0.00994	2.01 µM		7.36 µM	0.357	73.7 µM		4.39 µM	0.00157		0.0229	1.84 µM	0.00326	1.42 µM	0.07	0.00336	45.4	6.33 µM
O=C1c2cccc3c(N4CCOCC4)ccc(c23)C(=O)N1CCN1CCN(CCCCCN2CCN(CCN3C(=O)c4cccc5c(N6CCOCC6)ccc(c45)C3=O)CC2)CC1	17.5	65.5 µM	57.2	> 100 µM	77.6	> 100 µM	> 100	> 100 µM	59.8	> 100 µM	84.5	> 100 µM	> 100	> 100 µM	74	> 100 µM	> 100	> 100	> 100	> 100 µM
Cc1ccc(C(=O)Nc2ccc(Oc3cc4cnn(C)c4cc3-c3cn[nH]c3)c(F)c2)c(=O)n1-c1ccc(F)cc1	> 100	> 100 µM	5.59	> 100 µM	2.08	> 100 µM	3.23	> 100 µM	2.23	> 100 µM	> 100	> 100 µM	2.96	> 100 µM	6.8	> 100 µM	8.12	6.1	> 100	> 100 µM
COC(=O)c1ccc(NC(N)=NCCC(C)(C)c2ccc(C(F)(F)F)cc2)nc1	1.79	3.64 µM	1.56	2.99 µM	1.58	3.07 µM	1.83	4.16 µM	2.18	5.06 µM	1.78	4.08 µM	1.7	3.8 µM	2.03	4.34 µM	2.06	1.99	5.12	4.56 µM
